Data taken from patent US8124655B2, “Use of LR-90 and LR-102 to overcome insulin resistance” (City of Hope, priority 2007, dated 2012).

Tests used:
[1] = system: TGF-β1, CTGF, fibronectin and collagen IV; experiment: Renal TGF-β1, CTGF and ECM proteins by RT-PCR, western blot and immunostaining; format: in vivo, rat
Description: Tissue sections were deparaffinised by sequential exposure to xylene and ethanol, dehydrated and then exposed to H2O2 to eliminate endogenous peroxidase activity. The kidney sections were then blocked with 2% (wt/vol.) BSA and exposed to specific antibodies against AGE, AGER, TGF-β1, CTGF, fibronectin and collagen type IV. Biotinylated anti-rabbit or anti-mouse IgG was then applied as a secondary antibody, followed by horseradish peroxidase conjugated streptavidin. The staining was visualised by reaction with 3,3′-diaminobenzidine tetrahydrochloride and then counterstained with haematoxylin. All the sections were examined by light microscopy (Olympus AX70) and photographed with Retiga 2000R camera.
(§1) Renal cortical tissues were homogenised in PBS buffer with 1% (vol./vol.) Nonidet P-40, 0.5% (wt/vol.) sodium deoxycholate, 0.1% (wt/vol.) SDS and protease inhibitor mixture (Roche, Indianapolis, Ind., USA). Homogenates were centrifuged for 15 min at 4° C. and at 12,000 rpm and the supernatant fractions collected and stored at −70° C. Nuclear extracts were prepared as described previously. Protein concentrations were measured using the Bio-Rad DC Assay kit. Total RNA was isolated using the RNA-STAT-60 reagent (Tel-Test, Friendswood, Tex., USA). Western blot assay Protein samples (50 μg) were separated on 10 to 20% gradient Tris-glycine Criterion gels (Bio-Rad) and then transferred to nitrocellulose membranes. The membranes were blocked with 5% (wt/vol.) skimmed milk in PBS before incubation with anti-TGF-β1, anti-CTGF, anti-AGER, anti-phospho-p38 MAPK, anti-phospho-p44/42 MAPK and anti-p65 NF-κB antibodies. Immunoreactive proteins were detected by enhanced chemiluminescence (Western Lightning Chemiluminescence Reagent; Perkin-Elmer, Waltham, Mass., USA) using horseradish peroxidase-labelled secondary antibodies. Equal amounts of protein loading were confirmed by restaining the membranes with antibodies against β-actin, p38 MAPK or p44/42 MAPK for cytosolic extracts or with histone H2B for nuclear extracts. Band intensities were quantified using a densitometer (Quantity One, Bio-Rad). Reverse transcriptase-polymerase chain reaction Total RNA (1 μg) was used for the RT reaction using the GeneAmp RNA PCR kit (Applied Biosystems, Foster City, Calif., USA). Total cDNA was then used in PCR reactions containing gene specific primers [Electronic supplementary material (ESM) Table 1] paired with Quantum 18S rRNA internal standards (Ambion, Austin, Tex., USA). Multiplex PCR reactions were performed in a GeneAmp 9700 (Applied Biosystems). […] The densities of amplified products corresponding to specific genes and 18S rRNA were quantified with Quantity One software (Bio-Rad). Results are expressed as the means of the ratios of Tgfb1, Ctgf or Ager band densities to the 18S rRNA band density.

3T3 adipocytes = experiment: FFA uptake and glucose uptake in 3T3 adipocytes; format: cell-based; conditions: FIG. 14
Description: FIG. 14. Effect of LR-90 on 3T3 adipocytes. Tissue culture data on 3T3 adipocytes, showing free fatty acid (FFA) uptake and glucose uptake improvements upon contact with LR-90.
The present Example, with reference to FIG. 14, provides tissue culture data on 3T3 adipocytes, showing free fatty acid (FFA) uptake and glucose uptake improvements upon contact with LR-90.

[2] = system: Zucker diabetic fatty rats (ZDF, fa/fa); experiment: Kidney histology, gene and protein expression and lipid peroxidation (Example 2); format: in vivo, rat
Method: FIG. 9. Representative photomicrographs of immunohistochemicals stainings of kidney tissues. A. Periodic Acid-Metheamine Silver (PAMS); B, Masson'S Trichrome; C, AGE; and D, RAGE stainings of kidneys from lean, ZDF and LR-90 treated ZDF rats.
FIG. 10. mRNA expression of TGF-B1, CTGF, fibronectin and RAGE in the kidney cortex. Renal cortices from each treatment group were analyzed by for TGF-B1, CTGF, fibronectin and RAGE gene expression by RT-PCR. A. Representative gel profiles; B, Quantitative results of band densities. 18s/18 sII were used as internal controls.
FIG. 11. Protein expression of TGF-B1 and CTGF in the kidney cortex. Renal cortices from each treatment group were analyzed by for TGF-B1 and CTGF protein expression by Western blotting and immunostaining with specific antibodies. Representative gel profiles and densiitometric quantitation of protein bands. *P<0.01 vs. lean, **P<0.01 vs. ZDF
FIG. 12. Representative immunohistochemical staining for TGF-B1 and CTGF in the kidney cortex. Renal cortices from each treatment group were probed with specific antibodies against TGF-β1 and CTGF.
FIG. 13. Effect of LR-90 on kidney lipid peroxidaton. A. Kidney lipid peroxides were analyzed by measuring malondialdehyde (MDA) in tissue homogenates using the TBARS method. B. Correlation of lipid peroxidation with urinary albumin excretion rates. *P<0.05 vs. ZDF, **P<0.01 vs. ZDF.
The present Example presents the results of an investigation of the effects of LR-90, an inhibitor of AGE/ALE formation, in male Zucker diabetic fatty rats (ZDF, fa/fa) fed with Purina 5008 diet until 40 weeks of age, and their hetorozygous lean littermates (ZDF fa/+) as non-hyperglycemic controls. LR-90 at 50 mg/L of drinking water was given to a subgroup of ZDF rats after the rats developed spontaneous diabetes at 13 weeks of age. At 40 weeks of age, and before killing the animals, their weight was measured; HbA1c, plasma glucose, insulin, triglycerides, cholesterol, CRP and urinary albumin and creatinine concentrations were measured. After euthanizing all animals, organs such as the kidneys, eyeballs, liver, heart, aortae and pancreas were dissected and subjected to immunohistochemical staining, RT-PCR, Western blotting and microscopy.

[3] = system: p38 MAPK, p44/42 MAPK, p65 subunit of NF-κB; experiment: Renal MAPKs and NF-κB activation by western blot; format: in vivo, rat
Method: as §1

[4] = kidneys of ZDF rats, to almost similar levels as in ZL rats

CC(C)(Oc1ccc(NC(=O)Nc2ccc(Cc3ccc(NC(=O)Nc4ccc(OC(C)(C)C(=O)O)cc4)c(Cl)c3)cc2Cl)cc1)C(=O)O [LR-90, methylene bis[4,4′-(2-chlorophenylureidophenoxyisobutyric acid)]]
mRNA expression and protein production of CTGF ([1]; kidneys of ZDF animals): significantly attenuated
mRNA expression and protein production of TGF-β1 ([1]; kidneys of ZDF animals): significantly attenuated
positive immunostaining for collagen IV [1, 4]: markedly reduced
positive immunostaining for fibronectin [1, 4]: markedly reduced
free fatty acid (FFA) uptake (3T3 adipocytes): improvements
glucose uptake (3T3 adipocytes): improvements
reduction of kidney lipid peroxidation ([2]; ZDF animals, MDA by TBARS, Example 2): ~40%
glomerulosclerosis, tubular degeneration and collagen deposition ([2]; kidney of ZDF rats, FIGS. 9a and b): prevented
renal AGE and RAGE accumulation ([2]; kidney of ZDF rats, FIGS. 9c and d): reduced
TGF-β1 and CTGF gene and protein expression, fibronectin and RAGE mRNA ([2]; kidneys of ZDF rats, FIGS. 10, 11 and 12): significantly attenuated
activation of NF-κB (p65 subunit) ([3]; kidney nuclear extracts of ZDF rats, p<0.01): significantly attenuated
activation of p44/42 MAPK ([3]; renal cortex of ZDF rats, p<0.01): significantly attenuated
activation of p38 MAPK ([3]; renal cortex of ZDF rats, p<0.05): significantly attenuated
